In ChEMBL document CHEMBL1201862, “PubChem BioAssay data set” (2004):
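Test compounds were applied to cells in 96-well plates for 48 hours at 5 doses. GI50 is the concentration that inhibits growth by half.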 Calls of active or inactive are those of the source. No stated cut-off is given here; in the data, active = GI50 up to about 1.1 µM and inactive = higher.

What was measured:
Assay in all cases: NCI-60 cell line screen, 48 h
[1] = system: DLD-1
[2] = system: DMS-273
[3] = system: HOP-18
[4] = system: KM-20L2
[5] = system: M19-MEL
[6] = system: RXF 631
[7] = system: SNB-78
[8] = system: XF498
[9] = system: DMS-114

SMILES	GI50 [1]	GI50 [2]	GI50 [3]	GI50 [4]	GI50 [5]	GI50 [6]	GI50 [7]	GI50 [8]	GI50 [9]
CCCCCCCCCCCCNC1(C)CNCCCNCCNCCCNC1	1.67 µM (inactive)	0.475 µM (active)	1.68 µM (inactive)	1.66 µM (inactive)	1.72 µM (inactive)	1.93 µM (inactive)	1.82 µM (inactive)	1.93 µM (inactive)	–
Cc1ccc2[nH]c3c(C)c4c(c(C)c3c2c1)CN(C)C=C4	1.44 µM (inactive)	1.04 µM (active)	7.46 µM (inactive)	2.18 µM (inactive)	–	0.931 µM (active)	0.738 µM (active)	1.25 µM (inactive)	–
c1ccc2[nH]c(CNc3ccc(C4C[Se]N=N4)cc3)nc2c1 (configuration not stated)	> 100 µM (inactive)	67.1 µM (inactive)	> 100 µM (inactive)	–	41.3 µM (inactive)	–	–	–	21.8 µM (inactive)
CCOc1ccc(NC(=O)CC2Sc3ccccc3NC2=O)cc1 (configuration not stated)	88.5 µM (inactive)	33.4 µM (inactive)	20.5 µM (inactive)	> 100 µM (inactive)	> 100 µM (inactive)	–	57.1 µM (inactive)	–	> 100 µM (inactive)
CC(=O)Nc1ccc(-c2nnc(SCC(=O)Nc3ccc(Cl)cc3Cl)o2)cc1	35.1 µM (inactive)	39.5 µM (inactive)	55.3 µM (inactive)	42.7 µM (inactive)	51.9 µM (inactive)	–	> 100 µM (inactive)	–	15.7 µM (inactive)
N#CC(NNC(=O)Cc1ccccc1)c1c(O)ccc2ccccc12 (configuration not stated)	3.96 µM (inactive)	3.68 µM (inactive)	4.36 µM (inactive)	15.8 µM (inactive)	2.71 µM (inactive)	–	13.6 µM (inactive)	–	2.08 µM (inactive)
COC(=O)N/N=C(\C)CC(=O)Nc1ccc(Cl)cc1	> 100 µM (inactive)	–	–	> 100 µM (inactive)	> 100 µM (inactive)	> 100 µM (inactive)	> 100 µM (inactive)	> 100 µM (inactive)	> 100 µM (inactive)
CN(C)C(=Nc1nc(N(C)C)s[s+]1)N(C)C	> 100 µM (inactive)	> 100 µM (inactive)	> 100 µM (inactive)	> 100 µM (inactive)	> 100 µM (inactive)	> 100 µM (inactive)	–	> 100 µM (inactive)	> 100 µM (inactive)
O=C1C=C(Nc2ccccc2C(=O)CC(=O)C(=O)Nc2cccc([N+](=O)[O-])c2)c2ccccc2C1=O	21.9 µM (inactive)	31.1 µM (inactive)	–	> 100 µM (inactive)	4.45 µM (inactive)	> 100 µM (inactive)	49.1 µM (inactive)	19.6 µM (inactive)	18.5 µM (inactive)
O=c1[nH]nc2c3n[nH]c(=O)n3c3ccccc3n12	> 100 µM (inactive)	> 100 µM (inactive)	–	> 100 µM (inactive)	> 100 µM (inactive)	> 100 µM (inactive)	> 100 µM (inactive)	> 100 µM (inactive)	> 100 µM (inactive)
OC12CC/C(=N/OCc3ccccc3)CC1c1ccccc12 (configuration not stated)	> 100 µM (inactive)	> 100 µM (inactive)	> 100 µM (inactive)	> 100 µM (inactive)	> 100 µM (inactive)	–	> 100 µM (inactive)	–	> 100 µM (inactive)
O=c1[nH]ccc2c1ccn2C1CC(O)C(CO)O1 (configuration not stated)	> 100 µM (inactive)	> 100 µM (inactive)	> 100 µM (inactive)	–	> 100 µM (inactive)	> 100 µM (inactive)	> 100 µM (inactive)	–	> 100 µM (inactive)
Cc1cc2c(c3c1c1ccccc1n3C)C(=O)C=CC2=O	6.32 µM (inactive)	22.5 µM (inactive)	–	–	–	–	> 54.1 µM (inactive)	17.7 µM (inactive)	–
N#CC1=C(c2ccccc2)NN(Cc2ccccc2)C(c2ccc(Cl)cc2)CC1=O (configuration not stated)	15.7 µM (inactive)	21.4 µM (inactive)	17 µM (inactive)	20.8 µM (inactive)	–	28.1 µM (inactive)	99.3 µM (inactive)	15 µM (inactive)	32.3 µM (inactive)
COC(=O)/C(=C/CC(N=C(c1ccccc1)c1ccccc1)C(=O)OC)N=C(c1ccccc1)c1ccccc1 (configuration not stated)	> 100 µM (inactive)	> 100 µM (inactive)	–	–	> 100 µM (inactive)	–	–	> 100 µM (inactive)	15.1 µM (inactive)
O=C1NCCS(=O)(=O)N[C@@H](CC2=CC=CCC2)C(=O)N2CCCC12 (some centres not stated)	> 100 µM (inactive)	> 100 µM (inactive)	> 100 µM (inactive)	> 100 µM (inactive)	> 100 µM (inactive)	> 100 µM (inactive)	> 100 µM (inactive)	> 100 µM (inactive)	> 100 µM (inactive)
COc1ccc(/C(=N/NC(N)=O)C(c2ccc(OC)cc2)C2C(=O)Oc3ccccc32)cc1 (configuration not stated)	> 100 µM (inactive)	> 100 µM (inactive)	–	> 100 µM (inactive)	> 100 µM (inactive)	> 100 µM (inactive)	> 100 µM (inactive)	> 100 µM (inactive)	> 100 µM (inactive)
CSc1nc(NC2OC(COC(C)=O)C(OC(C)=O)C(OC(C)=O)C2OC(C)=O)c2c(n1)OCC2=O (configuration not stated)	> 100 µM (inactive)	–	> 100 µM (inactive)	> 100 µM (inactive)	> 100 µM (inactive)	> 100 µM (inactive)	> 100 µM (inactive)	–	> 100 µM (inactive)
OC1(C23CC4CC(CC(C4)C2)C3)CSCC1(O)C12CC3CC(CC(C3)C1)C2 (configuration not stated)	> 100 µM (inactive)	> 100 µM (inactive)	–	–	64.6 µM (inactive)	> 100 µM (inactive)	> 100 µM (inactive)	> 100 µM (inactive)	> 100 µM (inactive)
CC#CC1C(OC(=O)c2ccccc2)CCCC1(CI)N=[N+]=[N-] (configuration not stated)	52.1 µM (inactive)	38.7 µM (inactive)	> 100 µM (inactive)	60.7 µM (inactive)	48.5 µM (inactive)	–	> 100 µM (inactive)	20.1 µM (inactive)	25.1 µM (inactive)
O=C(O)CC[C@H](NC(=O)c1ccc(-n2nc3ccc(=O)cc-3[nH]c2=O)cc1)C(=O)O	> 100 µM (inactive)	> 100 µM (inactive)	> 100 µM (inactive)	> 100 µM (inactive)	> 100 µM (inactive)	> 100 µM (inactive)	> 100 µM (inactive)	–	> 100 µM (inactive)
COC(OC)c1cc2c(cc1C(=O)[C@@]13CCC[C@@H]1NC(=O)O3)OCO2	79.6 µM (inactive)	> 100 µM (inactive)	–	–	> 100 µM (inactive)	–	> 100 µM (inactive)	84.5 µM (inactive)	> 100 µM (inactive)
CC1(C)COC2(OC1)C1=NS(=O)(=O)CC13CCC2C3(C)C (configuration not stated)	> 100 µM (inactive)	> 100 µM (inactive)	> 100 µM (inactive)	> 100 µM (inactive)	> 100 µM (inactive)	> 100 µM (inactive)	> 100 µM (inactive)	> 100 µM (inactive)	> 100 µM (inactive)
Cc1nc(C(N)=S)sc1C(=O)/C=C/c1cccc(O)c1	> 100 µM (inactive)	> 100 µM (inactive)	> 100 µM (inactive)	> 100 µM (inactive)	> 100 µM (inactive)	> 100 µM (inactive)	> 100 µM (inactive)	–	68.1 µM (inactive)
Cn1nc2ccccc2cc1=O	> 100 µM (inactive)	> 100 µM (inactive)	> 100 µM (inactive)	> 100 µM (inactive)	> 100 µM (inactive)	> 100 µM (inactive)	> 100 µM (inactive)	> 100 µM (inactive)	> 100 µM (inactive)
CCOC(=O)c1cc(/C=C/C(C)=C/C(=O)OC)oc1-c1ccccc1	66.7 µM (inactive)	92.5 µM (inactive)	42.9 µM (inactive)	81.5 µM (inactive)	> 100 µM (inactive)	–	–	> 100 µM (inactive)	63.5 µM (inactive)
CCn1c2ccccc2c(=O)c2c(OC)ccc(OC)c21	–	30.8 µM (inactive)	–	92.5 µM (inactive)	74 µM (inactive)	49.1 µM (inactive)	–	34.1 µM (inactive)	–
CC1OC(n2cc(F)c(=O)[nH]c2=O)CCC1=O (configuration not stated)	52.5 µM (inactive)	62.5 µM (inactive)	65.2 µM (inactive)	96.6 µM (inactive)	> 100 µM (inactive)	39.9 µM (inactive)	> 100 µM (inactive)	–	> 100 µM (inactive)
